Key:
Format in all cases: in vivo
Globodera pallida J2s [1] = test: Tomato invasion assay, G. pallida J2s; conditions: G. pallida J2s, 100 μM uNLP, 24 h; tomato seedlings
Experimental: (§1) Predicted uNLPs from both M. incognita and G. pallida were synthesised by EZBiolab and dissolved into pH adjusted ddH2O to make a 5 mM stock which was aliquoted and stored at −20° C. J2s of both M. incognita and G. pallida were incubated for 24 hours in 200 μl of each peptide in a 24 well plate (SPL Lifesciences, South Korea) at a defined concentration.
(§2) Tomato seeds were sterilised with 2.5% NaOCl for 15 minutes, washed 5 times in ddH2O and germinated on 0.5% Murashige and Skoog plates at 23° C. […] Invasion assays were performed by mixing 500 pre-treated M. incognita or G. pallida J2s with agar slurry and a single tomato seedling (2 days post germination) in a 6 well plate. Assays were left at 23° C. for 24 hours in the case of M. incognita and at 18° C. for 24 hours in the case of G. pallida under a 16 hour light and 8 hour darkness cycle. Seedlings were stained using acid fuschin [69] and the number of nematodes within the roots counted.

[2] = test system: Meloidogyne incognita J2s; test: Serotonin-induced stylet thrusting assay, M. incognita J2s; conditions: 100 μM uNLP, 24 h, 5 mM serotonin
Experimental: as §1
(§3) Stylet thrusting assays where performed by incubating 100 M. incognita or G. pallida J2s for 15 minute in 5 mM or 2 mM serotonin (Sigma Aldrich, USA), respectively. J2s were placed on a glass slide and stylet thrusts were counted for randomly selected J2s, for 1 minute each. Counting took place for a maximum of 15 minutes. Longer incubations yielded inconsistent results. At least 30 J2s were counted for each neuropeptide treatment.

[3] = test system: Meloidogyne incognita J2s; test: Tomato invasion assay, M. incognita J2s; conditions: 100 μM uNLP, 24 h, tomato seedlings, normalised to negative control
Experimental: as §1, §2

Globodera pallida J2s [4] = test: Serotonin-induced stylet thrusting assay, G. pallida J2s; conditions: 100 μM uNLP, 24 h, 2 mM serotonin
Experimental: as §1, §3

[5] = test system: Globodera pallida infective stage juveniles (J2s); test: Chemosensory (chemotaxis) assay towards root exudate, G. pallida J2s; conditions: 100 μM uNLP, 24 h, mean+/-SEM
Experimental: as §1
(§4) A 60 mm Petri dish was divided into two segments, a positive and a negative side, with a 0.5 cm ‘dead zone’ either side of the centre point. The petri dish was filled with 15 ml of 0.25% w/v agar which was allowed to solidify. 3 ml of 0.25% w/v agar slurry in spring water (pH 7, agitated with a magnetic stirrer for several hours to give a smooth consistency) was added to the petri dish and spread evenly over the surface. Root diffusate (attractant) and water only (control) 0.25% agar plugs were embedded in the agar slurry, either side of the assay arena. Root diffusate was collected from 10 tomato plants, aged 3-6 weeks in 1 litre pots, by pouring 500 ml of ddH2O through the soil three times. Diffusate from each plant was combined, filter sterilised and stored at 4° C. for a maximum of 1 month. Root diffusate agar plugs were made by melting 1.25% agar in ddH2O, cooling to 50° C. before mixing with 4 parts of root diffusate. The agar was then allowed to solidify at room temperature. 100 uNLP pre-treated M. incognita or G. pallida J2s were added by pipette to the centre of the plate. J2s which moved out of the ‘dead zone’ after 3 hours were counted and their location (+/−) scored. The distribution of J2s were used to create a chemotaxis index for each plate, which formed one replicate, a total of 10 replicates where completed for each uNLP treatment.

[6] = test system: Meloidogyne incognita infective stage juveniles (J2s); test: Chemosensory (chemotaxis) assay towards root exudate, M. incognita J2s; conditions: M. incognita J2s, 100 μM uNLP, 24 h; mean+/-SEM
Experimental: as §1, §4

[7] = test system: mixed-stage Caenorhabditis elegans; test: C. elegans chemotaxis assay (non-target nematode); conditions: 100 μM, 24 h, no statistically significant impact; for chemotaxis index (Cl) towards sodium acetate: control 0.4269; for chemotaxis index (Cl) towards pyrazine: control 0.4904; for chemotaxis index (Cl) towards diacetyl: control 0.6638; for chemotaxis index (Cl) towards benzaldehyde: control 0.7026
Experimental: C. elegans wild-type N2 Bristol strain were obtained from the C. elegans Genomics Center and maintained on a Escherichia coli (strain OP50) lawn on nematode growth medium (NGM) agar plates (3 g/l NaCl, 17 g/l agar, 2.5 g/l peptone, 5 mg/l cholesterol, 25 mM KH2PO4 (pH 6.0), 1 mM CaCl2, 1 mM MgSO4) at 20° C.. Chemotaxis assays were performed in a 9 cm diameter Petri dish on NGM agar which was split into a positive and negative side with a central ‘dead zone’ of 1.5 cm diameter. 100 mixed-staged C. elegans were washed three times in M9 buffer and soaked in 100 μM PPN uNLP, or M9 vehicle control for 24 hours. 2 μl of 50 mM sodium acetate, 0.5% pyrazine, 0.5% benzaldehyde or 0.5% diacetyl was spotted onto the positive side, 2 μl of ddH2O was spotted onto the negative side. Pyrazine, benzaldehyde and diacetyl volatile attractants were assayed immediately whereas the water soluble sodium acetate was assayed 18 hours following addition to the plate. Assays were maintained in the dark at 20° C., and counted after 1 hour.

[8] = test system: Steinernema carpocapsae infective juveniles; test: S. carpocapsae host-finding assay (non-target nematode); conditions: S. carpocapsae IJs, 100 μM, 24 h; no statistically significant impact; control 0.2315
Experimental: S. carpocapsae were cultured in Galleria mellonella at 23° C. Infective juveniles (IJs) were collected using a White trap in PBS. Freshly emerged IJs were used for each assay. 100 IJs were incubated for 24 hours in 100 μM of selected uNLPs, and host-finding assays performed as in Morris et al..

[9] = test system: Meloidogyne incognita J2s; test: B. subtilis and C. reinhardtii plant protection assay, M. incognita; conditions: tomato
Experimental: as §2
B. subtilis were grown overnight in LB media containing ampicillin (100 μg/ml) at 37° C. with shaking, and harvested in the log phase of growth determined by measuring OD600nm. Five ml of culture at 0.5 OD was spun down and the pellet mixed with 3 ml of agar slurry and 500 J2s from either G. pallida or M. incognita. C. reinhardtii clones were grown at 23° C. with shaking, cultures in the log phase were measured at OD750 and 5 ml of culture at 0.5 OD was pelleted by centrifugation. C. reinhardtii pellets were mixed with 3 ml of agar slurry and 500 J2s from either G. pallida or M. incognita. Plant invasion assays were performed as described above.
uNLP secretion inserts, and vector pChlamy_3 were digested using Kpnl/Xbal (New England Biolabs, USA), ligated using T4 ligase (New England Biolabs, USA), and cloned into Escherichia coli One Shot® TOP10 chemically competent cells (Life Technologies, USA) following manufacturer's instructions. Ampicillin (Sigma Aldrich, USA) was used to select E. coli containing the pChlamy_3 plasmid, which was subsequently extracted using the High Pure Plasmid Isolation Kit (Roche) and sequenced (Eurofins Genomics, UK) to identify correct clones. C. reinhardtii was transformed by electroporation following manufacturer's instructions (GeneArt® Chlamydomonas Engineering Kit, Life Technologies) and individual colonies grown on TAP-Agar-Hygromycin plates (10 μg/mL) (Sigma Aldrich, USA) at 23° C. Colonies were picked and grown at 23° C. in 100 ml TAP growth media (Invitrogen, USA) with constant orbital agitation. qRT-PCR was performed to identify clones with the highest level of uNLP expression, which were then selected for downstream assays (pChlamy universal FWD: […], nlp-15b REV: CTACTAGTCGAGGCCGGTA; Mi-nlp-9f REV: GAACGGGCGGATGAAGTAG).
uNLP secretion inserts, and vector pBE-S were digested using Xbal/Mlul (New England Biolabs, USA), ligated using T4 ligase (New England Biolabs, USA), and cloned into E. coli One Shot® TOP10 chemically competent cells (Life Technologies, USA) following manufacturer's instructions. […]

Substance | host invasion relative to controls (Globodera pallida J2s [1]) | rate of serotonergic-induced stylet thrusting compared with controls [2] | host invasion compared to controls [3] | chemotaxis index (Cl) towards root exudate [5] | further results
GGARAFNFFAPPDE [Gp-NLP-21a, predicted unamidated NLP of Globodera pallida] | 178.9%+/−48.52 | – | – | – | –
AAENFDENNDIN [Mi-NLP-18d, predicted unamidated NLP of Meloidogyne incognita] | – | 147.7%+/−16.05 | 34.21%+/−12 | – | –
GMRNFAFA [Mi-NLP-18b, predicted unamidated NLP of Meloidogyne incognita] | – | 146.6%+/−7.609 | 47.81%+/−6.008 | – | –
GGARAFFGDADGPFNSASYWAP [Gp-NLP-21h, predicted unamidated NLP of Globodera pallida] | – | – | – | −0.01564+/−0.08072 | serotonergic-induced stylet thrusting relative to control groups (Globodera pallida J2s [4]): 116.8%+/−4.876
ALDMLEGDDFIGMQ [Mi-NLP-14a, predicted unamidated NLP of Meloidogyne incognita] | – | 61.6%+/−7.86 | 44.61%+/−12.25 | – | –
AGGRYFMRHFDDSPFAGWMA [Gp-NLP-21g, predicted unamidated NLP of Globodera pallida] | 214.8%+/−30.31 | – | – | −0.01357+/−0.1854 | –
MVSWQPV [Mi-NLP-40, predicted unamidated NLP of Meloidogyne incognita] | – | 210%+/−21.35 | – | – | chemotaxis index (Cl) towards root exudate [6]: −0.04+/−0.04726; chemotaxis index (Cl) towards sodium acetate [7]: 0.4820+/−0.115; chemotaxis index (Cl) towards pyrazine [7]: 0.5018+/−0.039; chemotaxis index (Cl) towards diacetyl [7]: 0.5858+/−0.097; chemotaxis index (Cl) towards benzaldehyde [7]: 0.6686+/−0.065; insect host-finding index (Cl) towards Galleria mellonella [8]: 0.3057+/−0.082; M. incognita invasion relative to control ([9]; B. subtilis cultures secreting the uNLP): 23.72%+/−5.448
GGGRYFIRPFADQ [Mi-NLP-9f, predicted unamidated NLP of Meloidogyne incognita] | – | – | 28.22%+/−5.253 | – | chemotaxis index (Cl) towards root exudate [6]: −0.26+/−0.224; chemotaxis index (Cl) towards sodium acetate [7]: 0.5261+/−0.064; chemotaxis index (Cl) towards pyrazine [7]: 0.4599+/−0.087; chemotaxis index (Cl) towards diacetyl [7]: 0.6+/−0.092; chemotaxis index (Cl) towards benzaldehyde [7]: 0.7463+/−0.047; insect host-finding index (Cl) towards Galleria mellonella [8]: 0.2462+/−0.070; M. incognita invasion relative to untransformed C. reinhardtii ([9]; C. reinhardtii cultures secreting the uNLP): 10.32%+/−10.32
ALDMMEGDDFIGL [Mi-NLP-14c, predicted unamidated NLP of Meloidogyne incognita] | – | 134.7%+/−19.51 | 20.96%+/−11.12 | – | –
GGARAFNFFAPDE [Gp-NLP-21b, predicted unamidated NLP of Globodera pallida] | 6.897%+/−3.855 | – | – | −0.117 +/−0.1936 | –
SFDSFTGSGFTGLD [Gp-NLP-15c, predicted unamidated NLP of Globodera pallida] | – | – | – | −0.227+/−0.0776 | serotonergic-induced stylet thrusting relative to control groups (Globodera pallida J2s [4]): 56.07%+/−9.441
SGIQTFRDDYDEKQAGEL [Gp-NLP-21d, predicted unamidated NLP of Globodera pallida] | 2.01%+/−1.545 | – | – | – | –
GGARAFNGAEETLLNVANLA [Gp-NLP-21i, predicted unamidated NLP of Globodera pallida] | – | – | – | −0.1733 +/−0.02667 | serotonergic-induced stylet thrusting relative to control groups (Globodera pallida J2s [4]): 117.7%+/−4.497
GGTRAFNFFVSDALPSSYE [Gp-NLP-21c, predicted unamidated NLP of Globodera pallida] | 14.07%+/−4.655 | – | – | – | –
